In publication PMC9511441, “Semisynthetic teicoplanin derivatives with dual antimicrobial activity against SARS-CoV-2 and multiresistant bacteria” (Scientific Reports, 2022):
Where two headings read alike, the source gives them in different places.

Key:
[1] = test system: VeroE6 cells; test: Cytotoxicity in mock-infected VeroE6 cells (XTT); assay type: cell-based, African green monkey; details: mock-infected Vero E6 cells, three days, XTT
[2] = test system: HEL cells; test: Cytotoxicity in mock-infected HEL cells (MTS); assay type: cell-based, human; details: mock-infected HEL cells, MTS, mean of 2–3 tests
[3] = target: T1, human recombinant cathepsin L (Homo sapiens, UniProt P07711); test: biochemical; assay type: biochemical; details: read-out: Cathepsin L IC50; pH 5.5, Z-Phe-Arg-AMC substrate
T1 construct: made in house; host or cells: Escherichia coli

[4] = test system: E. faecalis; test: MIC, broth microdilution; assay type: cell-based; details: Enterococcus faecalis
[5] = test system: S. aureus; test: MIC, broth microdilution; assay type: cell-based; details: Staphylococcus aureus
[6] = test system: S. haemolyticus; test: MIC, broth microdilution; assay type: cell-based; details: Staphylococcus haemolyticus
[7] = test system: S.pyogenes; test: MIC, broth microdilution; assay type: cell-based; details: Streptococcus pyogenes
[8] = test system: E. faecium; test: microbe, parasite or virus in culture; assay type: cell-based; details: Enterococcus faecium
[9] = test system: S. epidermidis; test: microbe, parasite or virus in culture; assay type: cell-based; details: Staphylococcus epidermidis
[10] = test system: Klebsiella pneumoniae ST258 clone K 160/09; test: MIC against Gram-negative strain; details: Klebsiella pneumoniae
[11] = test system: Pseudomonas aeruginosa ATCC 27853; test: MIC against Gram-negative strain; details: ATCC27853
[12] = test system: Acinetobacter baumannii ATCC BAA1605; test: MIC against Gram-negative strain; details: Acinetobacter baumannii, ATCCBAA1605
[13] = test system: Escherichia coli ATCC 25218; test: MIC against Gram-negative strain; details: ATCC25218
[14] = test system: Calu-3 cells; test: Cytotoxicity in mock-infected Calu-3 cells (XTT); details: read-out: CC50, Calu-3 cells, three days
[15] = test system: S. aureus ATCC29213; test: Fluorescent competition assay, release of fluorescent vancomycin; details: cells saturated with FL-VAN, Fig. 7 left panel
[16] = test system: SARS-CoV-2 pseudovirus; test: microbe, parasite or virus in culture; assay type: cell-based; details: cathepsin-dependent endosomal pathway
[17] = test system: SARS-CoV-2 pseudovirus; test: microbe, parasite or virus in culture; assay type: cell-based; details: A549-AT cells, TMPRSS2-mediated uptake
[18] = read-out: Average MIC value, E. faecalis VAN^R,TEI^R/VanA, 1 strain
[19] = read-out: Average MIC value, E. faecalis VAN^S, TEI^S, 2 strains
[20] = read-out: MIC value, E.faecalis JH2-2
[21] = read-out: MIC value, E.faecalis OG1RF
[22] = read-out: MIC value, E.faecalis V583, VAN,TEI/VanA
[23] = ATCC 29213 / MSSA, read-out: MIC value, S. aureus ATCC29213, MSSA
[24] = MRSA / USA300, read-out: MIC value, S. aureus USA300, CA-MRSA
[25] = MRSA, read-out: Average MIC value, S. aureus CA-MRSA, 1 strain
[26] = MRSA, read-out: Average MIC value, S. aureus MRSA, 7 strains
[27] = MRSA, read-out: MIC value, S. aureus 73OL, MRSA
[28] = MRSA, read-out: MIC value, S. aureus 214OL, MRSA
[29] = MRSA, read-out: MIC value, S. aureus 1041OL, MRSA
[30] = MRSA, read-out: MIC value, S. aureus A6918, MRSA
[31] = MRSA, read-out: MIC value, S. aureus A6919, MRSA
[32] = MRSA, read-out: MIC value, S. aureus Mu50, MRSA
[33] = MRSA, read-out: MIC value, S. aureus N315, MRSA
[34] = MSSA / NEWMAN, read-out: MIC value, S. aureus Newman, MSSA
[35] = MSSA, read-out: Average MIC value, S. aureus MSSA, 4 strains
[36] = MSSA, read-out: MIC value, S. aureus MSSA476, MSSA
[37] = MSSA, read-out: MIC value, S. aureus SA564, MSSA
[38] = S. haemolyticus mecA, 6 strains, read-out: Average MIC value
[39] = S.haemolyticus DALB_R1, mecA, read-out: MIC value
[40] = S.haemolyticus DALB_R2, mecA, read-out: MIC value
[41] = S.haemolyticus DALB_R3, mecA, read-out: MIC value
[42] = S.haemolyticus DALB_R4, mecA, read-out: MIC value
[43] = S.haemolyticus DALB_R5, mecA, read-out: MIC value
[44] = S.haemolyticus ORI_R1, mecA, read-out: MIC value
[45] = read-out: MIC value, S.pyogenes H232
[46] = read-out: MIC value, S.pyogenes H550
[47] = read-out: MIC value, S.pyogenes H578
[48] = read-out: Average MIC value, E. faecium VAN^R,TEI^R/VanA, 8 strains
[49] = read-out: Average MIC value, E. faecium VAN^S, TEI^S, 1 strain
[50] = read-out: MIC value, E.faecium E335, VAN,TEI,LNZ/VanA
[51] = read-out: MIC value, E.faecium E355, VAN,TEI,LNZ/VanA
[52] = read-out: MIC value, E.faecium E832, VAN,TEI,LNZ/VanA
[53] = read-out: MIC value, E.faecium E854, VAN,TEI,LNZ/VanA
[54] = read-out: MIC value, E.faecium E859, VAN,TEI,LNZ/VanA
[55] = read-out: MIC value, E.faecium E1114, VAN,TEI,LNZ/VanA
[56] = read-out: MIC value, E.faecium E1131, VAN,TEI,LNZ/VanA
[57] = read-out: MIC value, E.faecium E1132, VAN,TEI,LNZ/VanA
[58] = read-out: MIC value, E.faecium TX0016
[59] = read-out: Average MIC value, S. epidermidis mecA, 6 strains
[60] = read-out: MIC value, S.epidermidis ORI_R1, mecA
[61] = read-out: MIC value, S.epidermidis ORI_R2, mecA
[62] = read-out: MIC value, S.epidermidis ORI_R3, mecA
[63] = read-out: MIC value, S.epidermidis ORI_R4, mecA
[64] = read-out: MIC value, S.epidermidis TEI_R1, mecA
[65] = read-out: MIC value, S.epidermidis TEI_R2, mecA

T1 sequence (P07711 114-333): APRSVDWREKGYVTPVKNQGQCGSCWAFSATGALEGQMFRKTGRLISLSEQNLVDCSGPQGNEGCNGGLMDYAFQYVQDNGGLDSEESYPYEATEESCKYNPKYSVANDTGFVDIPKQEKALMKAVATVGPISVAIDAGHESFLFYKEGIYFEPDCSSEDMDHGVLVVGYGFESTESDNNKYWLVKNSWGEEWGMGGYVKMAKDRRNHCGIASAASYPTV

CC(=O)N[C@H]1[C@H](O[C@@H]2c3ccc(c(Cl)c3)Oc3cc4cc(c3O)Oc3ccc(cc3Cl)C[C@H]3NC(=O)[C@H](NC(=O)c5cc(OCCCSCCNC(=N)N)c(OCCCSCCNC(=N)N)c(OCCCSCCNC(=N)N)c5)c5ccc(O)c(c5)Oc5cc(O)cc(c5)[C@H](NC3=O)C(=O)N[C@H]4C(=O)N[C@H]3C(=O)N[C@@H]2C(=O)N[C@H](C(=O)O)c2cc(O)cc(O)c2-c2cc3ccc2O)O[C@H](CO)[C@@H](O)[C@@H]1O [Compound 7]
no effect: Outcompeting fluorescent vancomycin from S. aureus (in words) [15]
4.5 ± 1 µM: IC50 [3]
> 8 mg/L: MIC [4, 18] | MIC [4, 22] | MIC [8, 48] | MIC [8, 50] | MIC [8, 51] | MIC [8, 52] | MIC [8, 53] | MIC [8, 54] | MIC [8, 55] | MIC [8, 56] | MIC [8, 57]
2 mg/L: MIC [4, 19] | MIC [4, 20] | MIC [4, 21] | MIC [5, 36] | MIC [6, 41] | MIC [6, 42] | MIC [8, 49] | MIC [8, 58]
0.5 mg/L: MIC [5, 23] | MIC [6, 43] | MIC [6, 44]
1.12 mg/L: MIC [5, 35]
1 mg/L: MIC [5, 24] | MIC [5, 25] | MIC [5, 27] | MIC [5, 28] | MIC [5, 29] | MIC [5, 30] | MIC [5, 31] | MIC [5, 32] | MIC [5, 34] | MIC [5, 37] | MIC [6, 39] | MIC [6, 40]
1.2 mg/L: MIC [6, 38]
256 mg/L: MIC [13]
512 mg/L: MIC [10]
0.25 mg/L: MIC [5, 33] | MIC [7, 45] | MIC [7, 46] | MIC [7, 47] | MIC [9, 59] | MIC [9, 60] | MIC [9, 61] | MIC [9, 62] | MIC [9, 63] | MIC [9, 64] | MIC [9, 65]
128 mg/L: MIC [11] | MIC [12]
> 100 µM: CC50 [1] | CC50 [2] | CC50 [14]
0.89 mg/L: MIC [5, 26]

CC(=O)N[C@H]1[C@H](O[C@@H]2c3ccc(c(Cl)c3)Oc3cc4cc(c3O)Oc3ccc(cc3Cl)C[C@H]3NC(=O)[C@H](n5cc(COCCCC(F)(F)C(F)(F)C(F)(F)C(F)(F)C(F)(F)C(F)(F)F)nn5)c5ccc(O)c(c5)Oc5cc(O)cc(c5)[C@H](NC3=O)C(=O)N[C@H]4C(=O)N[C@H]3C(=O)N[C@@H]2C(=O)N[C@H](C(=O)O)c2cc(O)cc(O)c2-c2cc3ccc2O)O[C@H](CO)[C@@H](O)[C@@H]1O [Compound 4]
> 100 µM: CC50 [1] | CC50 [2]
0.812 mg/L: MIC [9, 59]
0.125 mg/L: MIC [9, 65]
66 ± 1 µM: IC50 [3]
0.0625 mg/L: MIC [7, 45] | MIC [7, 46] | MIC [7, 47]
2 mg/L: MIC [5, 24] | MIC [5, 25] | MIC [5, 27] | MIC [5, 28] | MIC [5, 29] | MIC [5, 32] | MIC [5, 33] | MIC [5, 34] | MIC [5, 36] | MIC [5, 37] | MIC [9, 60]
1.75 mg/L: MIC [5, 35]
0.25 mg/L: MIC [4, 19] | MIC [4, 20] | MIC [4, 21] | MIC [8, 49] | MIC [8, 58] | MIC [9, 63]
active, though less potent: Inhibition of pseudovirus entry in A549-AT cells (in words) [17]
1 mg/L: MIC [5, 23] | MIC [5, 30] | MIC [5, 31] | MIC [6, 43] | MIC [9, 61] | MIC [9, 62]
93 ± 11 µM: CC50 [14]
8 mg/L: MIC [6, 39] | MIC [6, 40] | MIC [6, 41] | MIC [6, 42] | MIC [6, 44]
1.71 mg/L: MIC [5, 26]
6.8 mg/L: MIC [6, 38]
highly effective: Inhibition of pseudovirus entry in Vero cells (in words) [16]
> 8 mg/L: MIC [4, 18] | MIC [4, 22] | MIC [8, 48] | MIC [8, 50] | MIC [8, 51] | MIC [8, 52] | MIC [8, 53] | MIC [8, 54] | MIC [8, 55] | MIC [8, 56] | MIC [8, 57]
0.5 mg/L: MIC [9, 64]
